This passage reports ODT results from patent US8147808B2, “Consumer noticeable improvement in wetness protection using solid antiperspirant compositions” (The Procter & Gamble Company, priority 2005, dated 2012).

The experiment is described as follows: Odor detection threshold (ODT) determined using a gas chromatograph. To be noted: odor detection threshold of HIA perfume ingredient. An excerpt: HIA perfume ingredients are characterized by their respective boiling point (B.P.), octanol/water partition coefficient (P) and odor detection threshold (“ODT”). The “octanol/water partition coefficient (P)” of a perfume ingredient is the ratio between its equilibrium concentrations in octanol and in water. The boiling points of many perfume ingredients, at standard pressure (760 mm Hg) are given in, e.g., “Perfume and Flavor Chemicals (Aroma Chemicals),” Steffen Arctander, published by the author.
Odor detection thresholds are determined using a gas chromotograph as disclosed in co-pending application, Browne, et al., filed Jun. 9, 2004.

`CC(=O)/C=C/C1=C(C)CCCC1(C)C` [Ionone Beta]: the ODT entry is on record as “≦50 ppb”.

For `C=C(C)[C@H]1CC=C(C)CC1` [d-limonene], the ODT result was “≧50 ppb”.

As to `CC1=CCC(C(C)CC2CCCC2=O)CC1` (stereo not drawn) [Nectaryl], the ODT entry was “≧50 ppb”.

As for Citralva Plus, the ODT result is given as “≦50 ppb”.

With `CCC=CCCC=CC=O` [2-6-nonadienal], the ODT entry is reported as “≦50 ppb”.

For `CCCCCCCC1CCC(=O)O1` (stereo not drawn) [Undecalactone], the ODT result was “≧50 ppb”.

In the case of `CCC/C=C/C=O` [Trans-2 Hexenal], the ODT result is given as “≦50 ppb”.

Consider `CC(C)=CCCC(C)C=O` (stereo not drawn) [Melonal], for which the ODT entry is recorded as “≦50 ppb”.

Take `CCCCCCC=CC(=O)OC` [methyl-2-nonenoate]: the ODT entry was “≦50 ppb”.

In the case of `CCOC(=O)C(C)CC` (stereo not drawn) [ethyl-2-methyl butyrate], the ODT entry is on record as “≦50 ppb”.

As to `CC1(C)C2CC=C(CCC=O)C1C2` (stereo not drawn) [Pino Acetaldehyde], the ODT result is given as “≦50 ppb”.

On to `CC(C)=CCCC(C)CCCC(C)C=O` (stereo not drawn) [Adoxal], for which the ODT result is given as “≧50 ppb”.

`C=CCCC(=O)C1=CCCC(C)(C)C1` [Neobutenone]: the ODT result is recorded as “≦50 ppb”.

Turning to Natural Sinensal, the ODT entry was “≦50 ppb”.

As for `CCCCCCCCCC(C)C=O` (stereo not drawn) [Methyl Nonyl Acetaldehyde], the ODT entry is “≦50 ppb”.

`C=CCOC(=O)CCCCCC` [Allyl Heptanoate]: the ODT result is listed as “≧50 ppb”.

In the case of `CC/C=C\CCO` [Beta Gamma Hexenol], the ODT entry is reported as “≧50 ppb”.

For the compound `CC(=O)OC1CCCCC1C(C)(C)C` (stereo not drawn) [Verdox], the ODT entry is given as “≧50 ppb”.

Take `CCCCCCCCCC=O` [Decyl Aldehyde]: the ODT result was “≦50 ppb”.

Take `C/C=C\C(=O)C1C(C)=CCCC1(C)C` (stereo not drawn) [Damarose Alpha]: the ODT result is “≦50 ppb”.

Turning to `CCCCCCCCC/C=C/C=O` [Mandarin Aldehyde], the ODT result is on record as “≦50 ppb”.

With `CC(=O)CCc1ccc(O)cc1` [Para Hydroxy Phenyl Butanone], the ODT entry is “≦50 ppb”.

In the case of `CCCCCCC(C=O)=Cc1ccccc1` [Hexyl Cinnamic Aldehyde], the ODT entry is given as “≧50 ppb”.

In the case of `CC/C=C\CCOC(C)=O` [Cis 3 Hexenyl Acetate], the ODT entry is listed as “≧50 ppb”.
